{"source": "patent US12208227B2", "about": "“Precision bio-chemotronic system” (THE REGENTS OF THE UNIVERSITY OF MICHIGAN, priority 2017, dated 2025)", "key": {"[1]": {"assay": "Dissolution of printed films versus original loose powders", "assay_type": "physicochemical", "source_text": "(§2) Drug dissolution was monitored by in-situ UV-VIS Ocean Optics USB+2000 spectrometer with T300-UV-VIS transmission dip probe, with a 10 mm optical path.\n(§3) For dissolution from film, the glass substrate with printed film was attached to rotating rod with substrate holder. In case of compressed powder pellet, 1.57 mm diameter pellet was compressed at 50±2 psi for approximately 10 seconds into a holder having same size as disk substrate holder. […] In all cases the same vessel and solution volume of 10 ml was used. Testing temperature was room temperature−20±1° C. Sink conditions were defined as C<5Cs.\nAs-received API powders having the same weight as the films were introduced into 10 ml solutions without any prior treatment, and stirred using a rotation rod with the same shape and diameter as the one used for film dissolution."}, "[2]": {"assay": "Intrinsic dissolution rate, rotating disk dissolution apparatus", "assay_type": "physicochemical", "conditions": "films comparable to compressed pellets, 100 rpm, 10 ml, 20±1° C.", "source_text": "as §2\nDissolution Rate Measurement\nas §3\nTo measure dissolution kinetics, a rotating disk dissolution apparatus (see FIG. 30 for details) was used with rotational speed of 100 rpm. Concentration was monitored using a UV-VIS spectrometer equipped with a dip probe. The compounds were tested both in powder form (compressed into pellets for rotating disk dissolution) and in film form. […]\n[formula] where m is the dissolved solute mass, and (dm/dt)max is the maximum slope in the dissolution curve that plots the amount of dissolved material versus time, typically evaluated at the start of dissolution process, where the concentration driving force is highest. […]"}, "physchem": {"assay": "physchem", "conditions": "20 °C, pH 1.2, simulated gastric fluid, thermodynamic from solid", "procedure": "Solubility tests were performed at ambient temperature (20±1° C.). Solutions with excess concentration (at least 100 μg/ml of solid) were shaken at approximately 1,000 rpm for 48 hours, followed by solution filtration with 0.4 μm filter after 24 hrs. Filtered solutions concentrations were then measured using UV-VIS spectrometry, calibrated with known solutions concentrations. Five different concentrations for calibration were used in each test.\nSolution volume remained constant in all experiments, 10 ml, and temperature was 20±1° C."}, "[3]": {"system": "MCF7 cells (breast carcinoma)", "assay": "Cancer cell growth/viability, live cell counts by trypan blue exclusion", "assay_type": "cell-based", "method": "(§1) The cells were plated onto 12-well tissue culture dishes, and allowed to adhere and grow for 24 hours in 2.5 ml of 10% fetal bovine serum-supplemented growth medium. […] Slides were removed following this initial period, and live cell counts were determined using trypan blue exclusion using a hemocytometer at 1, 4, 8, 12, 24 and 48 hours following film treatment. At least 3 samples were tested at each time point."}, "[4]": {"system": "OVCAR3 cells (ovarian carcinoma)", "assay": "Cancer cell growth/viability, live cell counts by trypan blue exclusion", "assay_type": "cell-based", "method": "as §1"}, "[5]": {"conditions": "film form, nominal 5 μM (4.5 μg per film)"}, "[6]": {"conditions": "powder form in growth medium, nominal 5 μM"}}, "data": [{"smiles": "Cn1c(=O)c2c(ncn2C)n(C)c1=O", "note": "[Caffeine]", "values": [{"measurement": "dissolution in the film form (qualitative)", "setting": "[1]; film form", "value": "instantaneous dissolution"}]}, {"smiles": "CC(C)Cc1ccc(C(C)C(=O)O)cc1", "note": "(stereo not drawn) [ibuprofen]", "values": [{"measurement": "intrinsic dissolution rate (IDR)", "setting": "[2]; aqueous HCl buffer pH 1.2", "value": "1·10^−3±3·10^−4 μg sec^−1 mm^−2"}, {"measurement": "enhancement of initial dissolution rate, film-form versus loose powder", "setting": "[1]; aqueous HCl buffer pH 1.2, 70 μg weight, 10 ml", "value": "thirty-fold"}, {"measurement": "solubility at 48 h", "setting": "physchem", "value": "22.5 ± 0.5", "unit": "µg/mL"}]}, {"smiles": "CC/C(=C(\\c1ccccc1)c1ccc(OCCN(C)C)cc1)c1ccccc1", "note": "[tamoxifen]", "values": [{"measurement": "intrinsic dissolution rate (IDR)", "setting": "[2]; aqueous acetate buffer pH 4.9", "value": "6.10^−4±1·10^−4 μg sec^−1 mm^−2"}, {"measurement": "cancer cells' viability after 48 hours", "setting": "[3]; [5]", "value": 58, "unit": "%"}, {"measurement": "cancer cells' viability after 48 hours", "setting": "[3]; [6]", "value": 79, "unit": "%"}, {"measurement": "cancer cells' viability after 48 hours", "setting": "[4]; [5]", "value": 44, "unit": "%"}, {"measurement": "cancer cells' viability after 48 hours", "setting": "[4]; [6]", "value": 68, "unit": "%"}]}]}
